Test results from PubChem BioAssay (NCI).
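96-well plates; 48 h exposure; 5 concentrations. Endpoints by linear interpolation between flanking doses. Not reached: highest tested concentration assigned. Here, GI50 denotes the concentration required for 50% inhibition of growth. The concentration for full growth arrest is given as TGI.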

What was measured:
Experiment in all cases: NCI tumour cell line growth inhibition, 48 h
[1] = tested on: A549 NSCLC
[2] = tested on: RPMI-8226 leukemia
[3] = tested on: COLO 205 colon
[4] = tested on: OVCAR-4 ovarian
[5] = tested on: CAKI-1 renal
[6] = tested on: SK-MEL-2 melanoma
[7] = tested on: UO-31 renal
[8] = tested on: M14 melanoma
[9] = tested on: UACC-257 melanoma
[10] = tested on: IGROV1 ovarian
[11] = tested on: SK-MEL-28 melanoma
[12] = tested on: NCI-H460 lung
[13] = tested on: HCT-116 colon
[14] = tested on: HOP-92 NSCLC
[15] = tested on: SN12C renal
[16] = tested on: PC-3 prostate
[17] = tested on: MDA-MB-231 breast
[18] = tested on: SK-OV-3 ovarian
[19] = tested on: RXF 393 renal
[20] = tested on: HT29 colon
[21] = tested on: HS 578T breast
[22] = tested on: EKVX NSCLC
[23] = tested on: LOX IMVI melanoma
[24] = tested on: ACHN renal
[25] = tested on: NCI-H226 lung
[26] = tested on: SW-620 colon
[27] = tested on: KM12 colon
[28] = tested on: SR leukemia
[29] = tested on: HCC-2998 colon
[30] = tested on: SF-268 CNS
[31] = tested on: MCF7 breast
[32] = tested on: TK-10 renal
[33] = tested on: MALME-3M melanoma
[34] = tested on: T-47D breast
[35] = tested on: HCT-15 colon
[36] = tested on: SNB-75 CNS
[37] = tested on: NCI-H522 lung
[38] = tested on: 786-0 renal
[39] = tested on: OVCAR-5 ovarian
[40] = tested on: OVCAR-8 ovarian
[41] = tested on: SK-MEL-5 melanoma
[42] = tested on: U251 CNS
[43] = tested on: NCI-H23 lung
[44] = tested on: SNB-19 CNS
[45] = tested on: CCRF-CEM leukemia
[46] = tested on: UACC-62 melanoma
[47] = tested on: SF-539 CNS
[48] = tested on: DU-145 prostate
[49] = tested on: HL-60(TB) leukemia
[50] = tested on: MOLT-4 leukemia
[51] = tested on: HOP-62 NSCLC
[52] = tested on: OVCAR-3 ovarian
[53] = tested on: A498 renal
[54] = tested on: BT-549 breast

Structure (SMILES): O=C1Nc2ccccc2/C1=C\c1c(-c2ccccc2)nc2ccccn12
- GI50 [1]: 3.9 µM
- TGI [1]: 60 µM
- GI50 [2]: 2.67 µM
- TGI [2]: 8.56 µM
- GI50 [3]: 2.21 µM
- TGI [3]: 5.58 µM
- GI50 [4]: 6.21 µM
- TGI [4]: > 100 µM
- GI50 [5]: 2.7 µM
- TGI [5]: > 100 µM
- GI50 [6]: 2.35 µM
- TGI [6]: 6.97 µM
- GI50 [7]: 1.95 µM
- TGI [7]: > 100 µM
- GI50 [8]: 2.48 µM
- TGI [8]: 7.8 µM
- GI50 [9]: 8.96 µM
- TGI [9]: > 100 µM
- GI50 [10]: 2.59 µM
- TGI [10]: 20.2 µM
- GI50 [11]: 5.53 µM
- TGI [11]: > 100 µM
- GI50 [12]: 3.24 µM
- TGI [12]: 12.9 µM
- GI50 [13]: 3.61 µM
- TGI [13]: 47 µM
- GI50 [14]: 3.98 µM
- TGI [14]: 50.4 µM
- GI50 [15]: 4.91 µM
- TGI [15]: > 100 µM
- GI50 [16]: 3.14 µM
- TGI [16]: > 100 µM
- GI50 [17]: 7.29 µM
- TGI [17]: > 100 µM
- GI50 [18]: 1.95 µM
- TGI [18]: 4.69 µM
- GI50 [19]: 2.75 µM
- TGI [19]: 12.1 µM
- GI50 [20]: 3.05 µM
- TGI [20]: 13.9 µM
- GI50 [21]: 9.31 µM
- TGI [21]: > 100 µM
- GI50 [22]: 3.1 µM
- TGI [22]: > 100 µM
- GI50 [23]: 4.34 µM
- TGI [23]: > 100 µM
- GI50 [24]: 4.45 µM
- TGI [24]: > 100 µM
- GI50 [25]: 4.5 µM
- TGI [25]: 57.8 µM
- GI50 [26]: 3.02 µM
- TGI [26]: > 100 µM
- GI50 [27]: 2.55 µM
- TGI [27]: > 100 µM
- GI50 [28]: 0.498 µM
- TGI [28]: > 100 µM
- GI50 [29]: 4.56 µM
- TGI [29]: 34.8 µM
- GI50 [30]: 5.23 µM
- TGI [30]: > 100 µM
- GI50 [31]: 3.52 µM
- TGI [31]: > 100 µM
- GI50 [32]: 5.05 µM
- TGI [32]: 37.1 µM
- GI50 [33]: 3.88 µM
- TGI [33]: > 100 µM
- GI50 [34]: 4.4 µM
- TGI [34]: > 100 µM
- GI50 [35]: 3.6 µM
- TGI [35]: > 100 µM
- GI50 [36]: 1.85 µM
- TGI [36]: 6.1 µM
- GI50 [37]: 1.83 µM
- TGI [37]: 7.65 µM
- GI50 [38]: 5.98 µM
- TGI [38]: 81.5 µM
- GI50 [39]: 4.39 µM
- TGI [39]: > 100 µM
- GI50 [40]: 4.9 µM
- TGI [40]: > 100 µM
- GI50 [41]: 2.83 µM
- TGI [41]: > 100 µM
- GI50 [42]: 3.97 µM
- TGI [42]: 21 µM
- GI50 [43]: 3.77 µM
- TGI [43]: > 100 µM
- GI50 [44]: 4.93 µM
- TGI [44]: > 100 µM
- GI50 [45]: 2.57 µM
- TGI [45]: > 100 µM
- GI50 [46]: 3.88 µM
- TGI [46]: > 100 µM
- GI50 [47]: 3.96 µM
- TGI [47]: 18.9 µM
- GI50 [48]: 4.46 µM
- TGI [48]: > 100 µM
- GI50 [49]: 2.59 µM
- TGI [49]: 6.47 µM
- GI50 [50]: 4.2 µM
- TGI [50]: > 100 µM
- GI50 [51]: 2.7 µM
- TGI [51]: 15.5 µM
- GI50 [52]: 4.26 µM
- TGI [52]: > 100 µM
- GI50 [53]: 5.87 µM
- TGI [53]: > 100 µM
- GI50 [54]: 3.97 µM
- TGI [54]: 50.9 µM
